Measured values taken from paper PMC10033812, “Imaging the TGFβ type I receptor in pulmonary arterial hypertension” (EJNMMI Research, 2023).

Columns and labels:
ALK5 [1] = molecular target: T1, ALK5 (Rattus norvegicus, UniProt P80204); assay: Dynamic PET imaging of lung uptake in control, MCT- and SuHx-exposed rats; assay type: in vivo; conditions: for Difference in lung uptake between control group and diseased animals after 15 min: after 15 min p.i.
T1 sequence (P80204 30-501): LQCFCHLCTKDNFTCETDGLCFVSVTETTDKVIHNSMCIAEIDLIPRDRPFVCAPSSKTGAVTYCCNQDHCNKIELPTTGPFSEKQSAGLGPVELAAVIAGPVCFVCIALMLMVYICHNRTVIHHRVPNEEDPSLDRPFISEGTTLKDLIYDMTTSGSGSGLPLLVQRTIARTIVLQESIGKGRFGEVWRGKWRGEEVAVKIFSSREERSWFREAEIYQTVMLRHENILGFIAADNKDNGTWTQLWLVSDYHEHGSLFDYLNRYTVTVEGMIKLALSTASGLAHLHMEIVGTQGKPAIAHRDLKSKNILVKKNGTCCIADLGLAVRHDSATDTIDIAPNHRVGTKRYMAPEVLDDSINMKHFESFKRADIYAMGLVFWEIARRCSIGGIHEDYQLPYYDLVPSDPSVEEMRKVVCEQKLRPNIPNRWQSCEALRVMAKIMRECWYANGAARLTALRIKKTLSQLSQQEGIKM
Procedure: Dynamic PET imaging was performed with NanoPET/CT and nanoPET/MR 1 T scanners (Mediso Ltd., Hungary, Budapest) with identical PET components. All injections were performed via a tail vein catheter. […] Rats were positioned on the scanner bed and the respiratory rate was monitored for the duration of the experiment, adjusting anaesthesia when required. Animals first underwent a computed tomography (CT) or magnetic resonance imaging (MRI) scan to keep the isoflurane exposure as low as possible (see Fig. 2 for the set-up of the experiment). […] Dynamic PET scans, starting at the time of tracer administration, were acquired for 60 min. […] At day 2, all animals received SB431542 30 min prior the injection of [^11C]LR111. In addition, the control group received a cyclosporine A (Sigma-Aldrich, Zwijndrecht, The Netherlands) injection at day 3, 30 min prior to the injection of [^11C]LR111. Finally, at day 4, SB431542 and cyclosporine A injections were administered 30 min prior to the injection of [^11C]LR111. After these scanning experiments, the animals were sacrificed by cervical dislocation. Lung tissues were removed from MCT (n = 3), SuHx (n = 3) and healthy rats (n = 3). They were filled with 50% Tissue-Tek (VWR, Amsterdam, The Netherlands) and 50% physiological salt and snap frozen in liquid nitrogen. Positron emission scans were acquired in list mode and rebinned into the following frame sequence: 4 × 5, 4 × 10, 2 × 30, 3 × 60, 2 × 300, 1 × 600, 1 × 900 and 1 × 1200 s. The scans were reconstructed with a spatial resolution of 0.4 mm and were corrected for attenuation and scatter. The scans of the first 30 s were combined to correct for injection speed differences. Images were analysed using the freely available software AMIDE, version 1.0.4 (http://amide.sourceforge.net/). […] Uptake was expressed as standard uptake values (SUV), which was calculated according to the following equation: SUV=%uptake of the total tracer dose/volume of the region of interest/bodyweight Error bars indicate standard deviation. Statistical analysis was performed using Graphpad PRISM (v 5.02, Graphpad Software Inc). Lung uptake in the control group was compared with uptake in the diseased animals with a one-tailed unpaired t-test. Differences were considered significant if p < 0.05. The representative PET images were generated using VivoQuant2020.

[2] = Ex vivo biodistribution study in healthy male Wistar rats; set-up: species or system rat; conditions: i.v., ± SEM; for Retention in healthy lung tissue: 15 min p.i., n = 4
Procedure: A biodistribution study and metabolite analysis was carried out in healthy male Wistar rats (214 ± 15 g, Charles River, Germany). Rats were injected with 21 ± 15 MBq of [^11C]LR111 in the tail vein under isoflurane anaesthesia (2% in O2 at 1 L min^−1). Rats were sacrificed under similar isoflurane anaesthesia by exsanguination and dissected at 5, 15, 30 and 60 min post injection (p.i.) (n = 4 per time point). Rats were injected with 14 ± 5 MBq [^18F]EW-7197 in the tail vein under isoflurane anaesthesia (2% in O2 at 1 L min^−1). Rats were sacrificed under similar isoflurane anaesthesia by exsanguination and dissected at 5, 15, 30 and 45 min post injection (p.i.) (n = 4 per time point). Blood, heart, lungs, liver, kidneys, urine, bone and brain were collected, weighed and counted for radioactivity (Wallac 1210 Compugamma, PerkinElmer, Waltham, MA, USA). Biodistribution data were expressed as percentage injected dose per gram tissue (%ID·g^−1) ± standard error of the mean (SEM). Blood at 15 min and 60 min p.i. ([^11C]LR111) and blood at 15 min and 45 min p.i. ([^18F]EW-7197), withdrawn from the abdominal aorta, (~ 7 mL) was collected in a heparin coated tube and centrifuged at 5000 rpm to separate plasma from blood cells (Hettich universal 32, Andreas Hettich GmbH & Co. KG, Tuttlingen, Germany). […] Fractions were counted for radioactivity (Wallac 1210 Compugamma, PerkinElmer, Waltham, MA, USA). The percentage of intact tracer in the non-polar fraction was determined by online HPLC analysis on a Dionex (Sunnyvale, CA, USA) UltiMate 3000 HPLC equipment with Chromeleon software (version 6.8) equipped with a Gemini C18 column (5 μm, 10 × 250 mm, Phenomenex, Torrance, CA, USA) with a mixture of MeCN (A) and 0.1% TFA in water (B) as eluent according to the following scheme 0 min: 90% B; 12 min 15% B; 8 min 90% B at 3.5 mL.min^−1 [^11C]LR111 Rt = 10.7 min and [^18F]EW-7197 Rt = 9.2 min. Results were expressed as percentage of intact tracer, polar metabolites and non-polar metabolites ± SEM (n = 4 for each time point).

[3] = Ex vivo metabolite analysis in rat blood plasma (SPE/HPLC); conditions: for Intact tracer: rat blood plasma, ± SEM, n = 4; for In vivo metabolic stability in rats: in words
Procedure: A biodistribution study and metabolite analysis was carried out in healthy male Wistar rats (214 ± 15 g, Charles River, Germany). Rats were injected with 21 ± 15 MBq of [^11C]LR111 in the tail vein under isoflurane anaesthesia (2% in O2 at 1 L min^−1). Rats were sacrificed under similar isoflurane anaesthesia by exsanguination and dissected at 5, 15, 30 and 60 min post injection (p.i.) (n = 4 per time point). Rats were injected with 14 ± 5 MBq [^18F]EW-7197 in the tail vein under isoflurane anaesthesia (2% in O2 at 1 L min^−1). Rats were sacrificed under similar isoflurane anaesthesia by exsanguination and dissected at 5, 15, 30 and 45 min post injection (p.i.) (n = 4 per time point). Blood, heart, lungs, liver, kidneys, urine, bone and brain were collected, weighed and counted for radioactivity (Wallac 1210 Compugamma, PerkinElmer, Waltham, MA, USA). Biodistribution data were expressed as percentage injected dose per gram tissue (%ID·g^−1) ± standard error of the mean (SEM). Blood at 15 min and 60 min p.i. ([^11C]LR111) and blood at 15 min and 45 min p.i. ([^18F]EW-7197), withdrawn from the abdominal aorta, (~ 7 mL) was collected in a heparin coated tube and centrifuged at 5000 rpm to separate plasma from blood cells (Hettich universal 32, Andreas Hettich GmbH & Co. KG, Tuttlingen, Germany). Solid phase extraction (SPE) cartridges (tC2, Waters, Ettenleur, The Netherlands) were preconditioned by washing with 6 mL MeOH and 2 × 6 mL H2O. Plasma (1 mL) was mixed with 6.0 M HCl (50 µL) and loaded on the SPE cartridge (> 99% recovery). The polar metabolite fraction was obtained by eluting the SPE cartridge with H2O (3 mL), the non-polar fraction by subsequent elution with MeOH (2 mL) and H2O (1 mL). Fractions were counted for radioactivity (Wallac 1210 Compugamma, PerkinElmer, Waltham, MA, USA). The percentage of intact tracer in the non-polar fraction was determined by online HPLC analysis on a Dionex (Sunnyvale, CA, USA) UltiMate 3000 HPLC equipment with Chromeleon software (version 6.8) equipped with a Gemini C18 column (5 μm, 10 × 250 mm, Phenomenex, Torrance, CA, USA) with a mixture of MeCN (A) and 0.1% TFA in water (B) as eluent according to the following scheme 0 min: 90% B; 12 min 15% B; 8 min 90% B at 3.5 mL.min^−1 [^11C]LR111 Rt = 10.7 min and [^18F]EW-7197 Rt = 9.2 min. Results were expressed as percentage of intact tracer, polar metabolites and non-polar metabolites ± SEM (n = 4 for each time point).

ALK5 [4] = molecular target: T1, ALK5; assay: Autoradiography on control, MCT- and SuHx-exposed rat lung sections; assay type: binding; conditions: for Binding to MCT-exposed lungs compared with control lungs: MCT-exposed lungs (Wistar) vs healthy lungs normalized to 100%; for Binding to MCT-exposed lungs compared with control lungs / Binding to SuHx-exposed lungs compared with control lungs: n = 3; for Binding to SuHx-exposed lungs compared with control lungs: SuHx-exposed lungs (S.D.) vs healthy lungs normalized to 100%
Procedure: Sections of 10 μm thickness were cut using a Cryostat ([…]) and thaw mounted on Thermo Scientific Superfrost plus adhesion slides. The sections were stored at- 20 °C until further handling. Tissue sections were defrosted, washed three times for 5 min with 5 mM Tris HCl buffer, pH 7.4 and dried in a cold stream of air. […] Sigma-Aldrich, Zwijndrecht, The Netherlands). The sections were washed in cold 5 mM Tris HCl buffer, pH 7.4, (three times 1 min) followed by a dip in ice cold water. […] Screens were developed on a Typhoon FLA 7000 phosphor imager (GE Healthcare lifescience, Buckinghamshire, UK) and analysed using Image Quant TL v8.1.0.0 (GE Healthcare lifescience, Buckinghamshire, UK). […] Statistical analysis was performed using Graphpad PRISM (v 5.02, Graphpad Software Inc). Tracer uptake in the tissue was compared with tracer uptake co-administered with SB431542 by using a one-tailed unpaired t-test. Differences were considered significant if p < 0.05. Adjacent tissue sections were used for autoradiography experiments.

P-gp = assay: PET imaging after cyclosporine A (efflux pump inhibitor) in healthy rats; assay type: in vivo, rat; conditions: increased lung uptake in healthy rats after cyclosporine A
Procedure: Dynamic PET imaging was performed with NanoPET/CT and nanoPET/MR 1 T scanners (Mediso Ltd., Hungary, Budapest) with identical PET components. All injections were performed via a tail vein catheter. […] Rats were positioned on the scanner bed and the respiratory rate was monitored for the duration of the experiment, adjusting anaesthesia when required. Animals first underwent a computed tomography (CT) or magnetic resonance imaging (MRI) scan to keep the isoflurane exposure as low as possible (see Fig. 2 for the set-up of the experiment). All tracer injections were performed via a tail vein catheter using 4 and 2% isoflurane in 1 L min^−1 oxygen for induction and maintenance, respectively (see Table 1 for animal weights and injected doses). Dynamic PET scans, starting at the time of tracer administration, were acquired for 60 min. Immediately after the [^11C]LR111 scan, a bolus injection of [^18F]EW-7197 was administered, in order to minimize the time that rats were exposed to isoflurane, and another dynamic PET scan was acquired. […] Images were analysed using the freely available software AMIDE, version 1.0.4 (http://amide.sourceforge.net/). […] Uptake was expressed as standard uptake values (SUV), which was calculated according to the following equation: SUV=%uptake of the total tracer dose/volume of the region of interest/bodyweight

[5] = PET, 15 min p.i., MCT rats, baseline scan
[6] = PET, 15 min p.i., SuHx rats, baseline scan
[7] = PET, 15 min p.i., healthy Wistar rats, SB431542 20 mg kg^−1 30 min prior
[8] = PET, 15 min p.i., healthy Wistar rats, baseline
[9] = PET, 15 min p.i., healthy Wistar rats, cyclosporine A 50 mg kg^−1 30 min prior
[10] = PET, 15 min p.i., healthy Wistar rats, cyclosporine A + SB431542
[11] = PET, 15 min p.i., healthy Wistar rats

| Compound | Lung uptake in MCT-exposed rats compared with control group (ALK5 [1]; PET, 15 min p.i.) | Lung uptake in SuHx rats compared with control group (ALK5 [1]; PET, 15 min p.i.) | Uptake in the lungs (ALK5 [1]; [5]) | Uptake in the lungs (ALK5 [1]; [6]) | Uptake in the lungs (ALK5 [1]; [7]) | Uptake in the lungs (ALK5 [1]; [8]) | Uptake in the lungs (ALK5 [1]; [9]) | Uptake in the lungs (ALK5 [1]; [10]) | Difference in lung uptake between control group and diseased animals after 15 min (ALK5 [1]; PET) | Retention in healthy lung tissue [2] | Intact tracer ([3]; 15 min p.i.) | In vivo metabolic stability in rats [3] | Binding to MCT-exposed lungs compared with control lungs (ALK5 [4]) | Binding to SuHx-exposed lungs compared with control lungs (ALK5 [4]) | further results |
| --- | --- | --- | --- | --- | --- | --- | --- | --- | --- | --- | --- | --- | --- | --- | --- |
| Cc1csc(-c2nc(CN[11C](=O)OCC(C)C)[nH]c2-c2ccc3ncsc3c2)n1 [[^11C]LR111] | 1.1 fold | similar | 1.10 ± 0.25 SUV | 1.04 ± 0.13 SUV | 0.85 ± 0.12 SUV | 1.03 ± 0.07 SUV | 0.85 ± 0.19 SUV | 1.00 ± 0.32 SUV | no difference | 0.45 ± 0.03 % ID·g^−1 | 74 ± 5% | moderately stable | 1.5 times | 3.2 times | Intact tracer ([3]; 60 min p.i.): 46 ± 2%; Tracer binding when SB431542 was added (ALK5 [4]; SB431542 94 µM): could be blocked |
| Cc1cccc(-c2[nH]c(CNc3ccccc3[18F])nc2-c2ccc3ncnn3c2)n1 [[^18F]EW-7197, N-((4-(1,2,4 triazolo 1,5-apyridin-6-yl)-5-(6-methylpyridin-2-yl)-1H-imidazol-2-yl)methyl)-2-fluoroaniline] | 1.4 fold | 2.5 fold | 0.81 ± 0.15 SUV | 1.47 ± 0.47 SUV | 0.44 ± 0.12 SUV | 0.59 ± 0.10 SUV | 0.90 ± 0.18 SUV | 0.72 ± 0.21 SUV | no difference | 0.56 ± 0.07 % ID·g^−1 | 55 ± 16% | moderately stable | 1.2 times | 1.2 times | Blocking of lung uptake with SB431542 in PET scans (ALK5 [1]; PET images, SB431542 20 mg kg^−1): could be blocked; Lung accumulation with cyclosporine A and SB431542 relative to baseline (ALK5 [1]; [11]): 1.2 fold; Lung accumulation with cyclosporine A relative to baseline (ALK5 [1]; [11]): 1.5 fold; Retention in bone [2]: 0.21 ± 0.02 % ID·g^−1; Intact tracer ([3]; 45 min p.i.): 23 ± 5%; Substrate for P-gp (P-gp): substrate for P-gp |
